“Also recorded” adds a separate entry of the source.
Experiments:
[1] = system: primary human macrophages; assay: Macrophage phenotype markers CD80 / CD163 by flow cytometry; assay type: cell-based; conditions: 24 h, selected peptide concentrations alone or with LPS, n = 3
Experimental: After 7 days differentiation, macrophages were incubated with fresh media with LPS, IL-4, and optimal concentrations of peptides alone or in combination with LPS. After 24 h stimulation, macrophages were detached from the culture plate and processed for staining into a 96-well plate. All washing steps were performed with cold 0,1% (w/v) bovine serum albumin (BSA)/PBS and centrifugation at 5 min, 500 x g. A panel of surface molecules was selected, based on previous reports for human macrophage polarization ([Ambarus et al., 2012]). The staining solutions were prepared by diluting the following fluorochrome-conjugated antibodies in PBS with 0,1% BSA and 1% (v/v) heat-inactivated human serum: CD16 (1:50); CD80 (1:50); CD163 (1:50). As a negative control, staining solution without antibodies was used. Cells were incubated with staining solutions for 30 min on ice, in the dark. Markers expression was measured via flow cytometer (FACSVerse, BD) and data analyzed using FlowJo.

[2] = system: primary human macrophages; assay: LPS-induced TNF-α and IL-10 release of macrophages (ELISA); assay type: cell-based; conditions: for inhibition of macrophage LPS-mediated activation: 10 ng/mL LPS O111:B4, 24 h, TNF-α and IL-10 by ELISA
Experimental: Isolated monocytes were seeded in a 24-well plate at a density of 300,000 cells/well, except where otherwise stated. Monocytes were differentiated to macrophages by culture for 7 days in α-Minimum Essential Medium (α-MEM) supplemented with 10% (v/v) hyclone fetal bovine serum (hyFBS), 100 U/mL penicillin- streptomycin (1% p/s), and 40 ng/mL human recombinant M-CSF. Culture media was refreshed after 3-4 days.
Monocytes were seeded in a 96-well plate at a density of 150,000 cells/well. After 7 days differentiation, macrophages were incubated with fresh media containing a range of peptides concentrations alone or in combination with 10 ng/mL LPS O111:B4 from E. coli. After 24 h stimulation, the supernatant was collected to measure LDH levels or TNF-α and IL-10 by ELISA, according to the manufacturer’s instructions. Both LDH and ELISA assays were performed in three independent experiments with measurements in triplicate.

[3] = system: Staphylococcus aureus strain SH1000; assay: Peptides direct antibacterial properties, broth micro-dilution, growth by OD 600 nm; assay type: cell-based; conditions: for direct antibacterial effect on S. aureus growth: broth micro-dilution in THB, inoculum 5 x 10^5 CFU/mL, 37°C, OD 600 nm every 5 min for 12 h, concentration range of peptide
Experimental: All experiments used GFP-labelled Staphylococcus aureus strain SH1000, transformed with a GFP-expressing plasmid pCM29 to constitutively express GFP, as previously described ([Boero et al., 2021]). Bacteria were grown overnight in Todd-Hewitt broth (THB) with 10 μg/mL chloramphenicol to reach stationary phase.
Peptides were diluted at different concentrations in α-MEM supplemented with 10% FBS or in THB when testing their effects on macrophages or bacteria, respectively.
Peptides direct antibacterial properties were determined by broth micro-dilution method. Overnight bacterial suspension was diluted in THB to reach a final inoculum concentration of 5 x 10^5 colony-forming units per mL (CFU/mL). Bacterial suspension and peptides dilutions were mixed in equal parts in a flat-bottom 96-well plate in triplicates in a total volume of 200 μL, and incubated at 37°C. Bacterial growth was monitored by measuring OD (600nm) continuously every 5 minutes for 12 h in Clariostar plate reader (BMG labtech) with gentle shaking before each measurement.

[4] = system: intracellular S. aureus in primary human macrophages; assay: "peptides during differentiation" model, intracellular S. aureus by CFU counting; assay type: cell-based; conditions: 30 min and 24 h, n = 6
Experimental: (§1) To assess the peptides influence on macrophages antibacterial properties, three different infection models studying intracellular bacteria survival, as outlined in Figures 3A, 5A, and 5D, were adopted. In all models, selected concentrations of peptides were used: 65 μM IDR-1018; 10 μM CATH-2; 10 μM LL-37.
(§2) The first step concerned the “peptides during infection” model, where cells were washed twice before incubation with the peptides for 24 h and subsequently bacteria were directly added to the culture without any washing step. In a subsequent step we assessed the “peptides during differentiation”, where peptides were added to the differentiation media for the first 3 days and removed after the regular media change; cells were washed twice before infection. In the third step we tested “peptides with MSCs”, where macrophages were cultured in presence of MSCs and peptides for 24 h; before infection cells were washed twice. All washing steps, before or after infection, were performed using warm α-MEM.
In all three models described, the same S. aureus infection protocol was applied. An overnight bacterial culture was diluted in α-MEM to reach a final inoculum concentration of 1 x 10^7 CFU/mL, and opsonized in 5% human pooled serum (HPS) for 15 min at 37°C. Opsonized S. aureus was added to the culture at a multiplicity of infection (MOI) = 1, meaning 1 bacterium per eukaryotic cell. To synchronize bacterial uptake, plates were centrifuged for 5 min, 110 x g at RT, and then moved to the incubator at 37°C, 5% CO2 for additional 25 min or 24 h. To study intracellular bacterial survival, after 30 min the cells were washed twice and cultured in media supplemented with 100 μg/mL gentamicin and 20 μg/mL lysostaphin for 1 h. Afterwards, cells were washed twice and incubated in media with only 5 μg/mL gentamicin. […]
(§3) To quantify the numbers of intracellular bacteria, cells were lysed with Triton X 0,1% and then plated on Todd-Hewitt agar plates in serial dilutions. Plates were incubated overnight at 37°C after which colonies were counted.

[5] = cited from earlier work; for binding to LPS: "silent killing" mechanism, ref Coorens et al., 2017b
From the text: One may argue that the inhibition of LPS-mediated activation of macrophages was not caused by peptides’ direct interaction with the immune cells. It was shown via a mechanism named “silent killing” that CATH-2 and LL-37 bind LPS to inhibit macrophages receptors activation ([Coorens et al., 2017b]).

[6] = system: primary human macrophages; assay: Human cytokine array G5 after LPS and peptide stimulation; assay type: cell-based; conditions: 24 h LPS and peptides, n = 2
Experimental: Qualitative expression of various cytokines and chemokines was measured in duplicate for selected conditions by human cytokine array G5, according to the manufacturer’s instructions.

[7] = system: primary human macrophages infected with S. aureus; assay: Confocal imaging, manual counting of intracellular bacteria ("peptides during infection" model); assay type: cell-based; conditions: 30 min infection, 50 randomly chosen cells
Experimental: According to the “peptides during infection” model, after 30 min infection cells were harvested and fixed as described for flow cytometry analysis. Cells membranes were stained with 3 μg/mL Alexa Fluor 647-labelled Wheat Germ Agglutinin (WGA) for 10 min at RT, on a shaking plate. Then, samples were transferred to CELLview slide previously coated with poly-L-lysine, and imaged on a Leica TCS SP5 microscope with a HCX PL AP CS 63x/1.40-0.60 OIL objective (Leica Microsystems). For each condition, the number of intracellular bacteria was counted in 50 randomly chosen cells. Images were adjusted for publication using Image J Fiji.

[8] = system: primary human macrophages infected with S. aureus; assay: "peptides during differentiation" model, S. aureus phagocytosis by flow cytometry; assay type: cell-based; conditions: for contribution to phagocytosis: peptides during monocyte differentiation, then infection
Experimental: as §1, §2
(§4) In all three models described, the same S. aureus infection protocol was applied. An overnight bacterial culture was diluted in α-MEM to reach a final inoculum concentration of 1 x 10^7 CFU/mL, and opsonized in 5% human pooled serum (HPS) for 15 min at 37°C. Opsonized S. aureus was added to the culture at a multiplicity of infection (MOI) = 1, meaning 1 bacterium per eukaryotic cell. To synchronize bacterial uptake, plates were centrifuged for 5 min, 110 x g at RT, and then moved to the incubator at 37°C, 5% CO2 for additional 25 min or 24 h. To study intracellular bacterial survival, after 30 min the cells were washed twice and cultured in media supplemented with 100 μg/mL gentamicin and 20 μg/mL lysostaphin for 1 h. Afterwards, cells were washed twice and incubated in media with only 5 μg/mL gentamicin. This treatment allows only intracellular bacteria to survive, as both gentamicin and lysostaphin are unable to penetrate mammalian cell membranes within short time periods ([Hamza et al., 2013]; [Hamza and Li, 2014]).
(§5) Samples were analyzed by flow cytometry and CFU counting at 30 min and 24 h after infection. Cells for flow cytometry were detached from the culture plate using 1mM DPBS/EDTA in combination with gentle scraping. When macrophages were cultured together with MSCs, samples were first trypsinzed and then scraped in DPBS/EDTA if cells were still attached to the bottom of the culture plate. Cells were moved to a 96-well plate and fixed in paraformaldehyde 4% before analysis. Samples were measured with MACSquant VYB (Miltenyi Biotech) flow cytometer and data analyzed with FlowJo. […] Non-infected samples were used to set GFP fluorescence baseline and define the proportion of infected, GFP-positive cells.

[9] = system: intracellular S. aureus in primary human macrophages; assay: "peptides during infection" model, intracellular S. aureus by CFU counting; assay type: cell-based
Experimental: as §1, §2, §4, §3

[10] = system: primary human macrophages infected with S. aureus; assay: "peptides during infection" model, S. aureus phagocytosis by flow cytometry; assay type: cell-based
Experimental: as §1, §2, §4, §5

[11] = system: primary human macrophages; conditions: ref Pena et al., 2013; cited from earlier work
From the text: In addition to TNF-α and IL-10, the peptides affected the expression of several other cytokines involved in immune cells’ activation and recruitment at the inflammation site (Figure 2E).

[12] = peptides 24 h before and during infection, 65 μM IDR-1018, 10 μM CATH-2, 10 μM LL-37, MOI 1, 30 min, n = 9
[13] = peptides in differentiation medium for the first 3 days, MOI 1, 30 min, n = 6

For “LLGDFFRKSKEKIGKEFKRIVQRIKDFLRNLVPRTES [LL-37, human cathelicidin host defense peptide, InVivogen]”, the “polarization of macrophages toward M1 (CD80) or M2 (CD163) phenotype” value [1] was “kept macrophages in an intermediate state”, the “inhibition of macrophage LPS-mediated activation” value [2] was “inhibited macrophage lipopolysaccharide-mediated activation” and the “direct antibacterial effect on S. aureus growth” value (“direct antibacterial effect” below) ([3]; n = 3) was “did not show antibacterial effects at any concentration tested”. The “macrophage intracellular killing (CFU)” value [4] was “had no impact”, the “binding to LPS” value [5] was “bind LPS” and the “expression of MIP-1β, RANTES and MCP-1,2,3” value [6] was “stronger inhibition of the LPS activation of macrophages”. For the same substance, the “bacterial uptake by macrophages, manual counting of intracellular bacteria” value (shortened to “bacterial uptake by macrophages”) [7] was “did not provide such effect”, the contribution to phagocytosis [8] was “had no impact” and the “effect on S. aureus surviving intracellularly (CFU), 30 min and 24 h” value ([9]; n = 9) was “no effects were observed”.

In the case of “RFGRFLRKIRRFRPKVTITIQGSARF-NH2 [CATH-2, chicken cathelicidin host defense peptide, CPC Scientific]”, the “polarization of macrophages toward M1 (CD80) or M2 (CD163) phenotype” value [1] is reported as “kept macrophages in an intermediate state”, the “inhibition of macrophage LPS-mediated activation” value [2] is reported as “inhibited macrophage lipopolysaccharide-mediated activation” and the “concentration arresting S. aureus growth, relative to that needed to inhibit macrophage LPS-mediated activation” value ([3]; THB, 12 h growth curve, compared with LPS inhibition assay) is reported as 10 times lower. The “direct antibacterial effect” value ([3]; n = 3) was “had direct antibacterial properties”, the “macrophage intracellular killing (CFU)” value [4] was “had no impact” and the “bacterial load, geometric mean of GFP signal, 30 min” value [10, 12] was “slightly reduced the bacterial load in macrophages”. For the same substance, the “binding to LPS” value [5] was “bind LPS”, the “bacterial uptake by macrophages” value [7] was “reduced the bacterial uptake by macrophages” and the contribution to phagocytosis [8] was “lost its contribution to phagocytosis; also recorded: had no impact”. For the same substance, the “number of S. aureus surviving intracellularly (CFU), 30 min” value ([9]; 10 μM CATH-2, 65 μM IDR-1018, 10 μM LL-37, n = 9) was “significantly reduced” and the “number of S. aureus surviving intracellularly (CFU), 24 h” value ([9]; gentamicin and lysostaphin after 30 min, n = 9) was “not statistically significant; also recorded: comparable to the non-stimulated group”.

With “VRLIVAVRIWRR-NH2 [IDR-1018, bovine-derived cathelicidin host defense peptide, CPC Scientific]” the “inhibition of macrophage LPS-mediated activation” value [2] was “inhibited macrophage lipopolysaccharide-mediated activation”, the “concentration required for inhibition of LPS-mediated activation, compared among peptides” value ([2]; 10 ng/mL LPS, 24 h, TNF-α and IL-10 ELISA) was “higher concentrations of IDR-1018 were required” and the “concentration from which the start of S. aureus exponential growth is delayed” value ([3]; THB, 12 h growth curve, OD 600 nm, n = 3) was at least 65 µM. For the same substance, the “direct antibacterial effect” value ([3]; n = 3) was “did not show antibacterial effects at any concentration tested”, the “macrophage intracellular killing (CFU)” value [4] was “had no impact” and the “bacterial load, geometric mean of GFP signal, 30 min” value [10, 12] was “markedly decrease phagocytosis”. The “fraction of infected cells (macrophages that phagocytosed at least 1 bacterial cell), 30 min” value [10, 12] was “significantly reduced the number of infected cells”, the “amount of phagocytosed S. aureus, 24 h” value ([10]; peptides during infection model, 24 h after infection, n = 9 (Figure S5)) was “reduced the amount of phagocytosed S. aureus” and the “binding affinity to LPS” value ([5]; ref Wieczorek et al., 2010) was “did not show significant binding affinity to LPS”. For the same substance, the “bacterial uptake by macrophages” value [7] was “reduced the bacterial uptake by macrophages”, the “polarization of macrophages toward M1 or M2 phenotype” value [11] was “did not correlate with the polarization of macrophages toward a clear M1 or M2 phenotype” and the “number of internalized bacteria (geometric mean of GFP signal), 30 min” value [8, 13] was “significantly reduced”. The “proportion of infected macrophages, 30 min” value [8, 13] was “significantly reduced” and the “effect on S. aureus surviving intracellularly (CFU), 30 min and 24 h” value ([9]; n = 9) was “no effects were observed”.
